Tested on: white bone marrow (WBM) cells
Description: For all examples, treatments of the mice were carried out either by i.t. (intra-tracheal) instillation or i.p. injection. For i.t. instillation, 60 μl of treatment solution of saline or saline plus 175 mM HCl or HOAc was instilled into the trachea of a mouse using a pipet tip. For i.p. injection, 200 μl of saline or saline plus 87.5 mM HCl, HOAc or NaOH was injected into the peritoneal cavity of a mouse using a 26 or 27G needle. At the time of the first treatment the body weights of the mice ranged about 19 to 30 g.
Cells were washed 3 times with PBS then stained with Zombie viability dyes at room temperature for 20 minutes. At the end of incubation, 10% volume of FBS was added to absorb excess Zombie dyes. After washes, the cells were stained with conjugated antibodies against surface antigens on ice. As specified in some experiments, the cells were subsequently stained with fluorochrome-conjugated Avidin. For Annexin V staining, cells were washed twice with plain PBS and once with Annexin V binging buffer (10 mM HEPES, pH7.4, 140 mM NaCl, 2.5 mM CaCl2)) after surface antigen staining, and incubated with fluorochrome-conjugated Annexin V in Annexin V binding buffer for 15 min at room temperature. The cells were washed twice in Annexin V binding buffer and resuspended in Annexin V binding buffer. 7-AAD was added to the cells before analyzed by flow cytometry. For Ki-67 and Foxp3 staining, lymphocytes (after Zombie dye and surface antigen staining) or tumor cells (without surface antigen staining) were fixed and permeabilized using Foxp3 staining buffer kit, then stained with PE-conjugated anti-mouse or human Ki-67 antibodies. (Biolegend, San Diego, Calif., USA). Stained and unstained cells were analyzed on Accuri C6 Flow Cytomer (Accuri Cytometers, Inc., Ann Arbor, Mich.), FACS Canto (BD Bioscience, San Jose, Calif., USA) and Attune™ cytometer (Invitrogen, Carlsbad, Calif.). Data analyses were carried out using FlowJo X.
To provide an example of this aspect of the present invention, C57BL/6 mice received i.p. treatments with saline or saline plus NaOH every other day for a total of 3 doses. Bone marrows were extracted from both tibias on day 1 or 3 after the final treatment.

SMILES: [Na+].[OH-] [NaOH, sodium hydroxide]
- Ki-67hi cells in B lineage cells (day 1, saline 4.85%): 24.8%
- Ki-67hi cells in non-B lineage cells (day 1, saline 11.2%): 35.3%
- Ki-67lo cells in B lineage cells (day 1, saline 34.7%): 61.6%
- Ki-67hi MPP (day 3, saline 0%): 2.54%
- percentage of T (CD3+) cells in WBM cells (day 3, saline 0.69%): 0.87%
- Sca-1+ c-kit+ stem cells in Lin- WBM cells (day 3, saline 0.81%): 1.74%
- Ki-67hi cells in T cells (day 3, saline 2.86%): 11.6%
- Ki-67hi HSC (day 3, saline 6.67%): 15.6%
- Ki-67neg TER-119+ cells (day 3, saline 7.11%): 6.72%
- percentage of TER-119+ cells in lymphoid and myeloid negative WBM cells (day 3, saline 14.6%): 17.5%
- percentage of CD11c+ TCR- cells in WBM cells (day 3, saline 18.4%): 64%
- Ki-67lo cells in T cells (day 3, saline 20%): 28.7%
- Ki-67lo MPP (day 3, saline 21.9%): 30.7%
- Ki-67lo TER-119+ cells (day 3, saline 25.3%): 16%
- Ki-67+ cells within the Ly6G+ population (day 3, saline 33.7%): 43.6%
- Ki-67+ cells in CD11c+ TCR- cells (day 3, saline 39.5%): 70.1%
- percentage of Ly6G+ cells in WBM cells (day 3, saline 42.4%): 57.7%
- Ki-67hi TER-119+ cells (day 3, saline 67%): 76.2%
- increase of average total number of WBM cells vs saline (i.p. x3, both tibias): 88%
- percentage of CD19+ B lineage cells in non-granulocyte WBM cells (one day after three i.p. treatments, saline about 11%): 17%
- average percentage of WBM cells in total bone marrow cells (saline less than 14%): over 29%
